Structures are written as SMILES. ≈ marks a conversion by molar mass, not a printed value.

Holding throughout (type): functional, cell-based
The test system of assay [1] is MCF7. Description: Cytotoxicity against human MCF7 cells assessed as reduction in cell viability after 48 hrs by MTT assay. The conditions noted are these: MCF7, 48 h.
In assay [2] the test system is A549. Description: Anticancer activity against human A549 cells by MTT assay.
Assay [3] relates to MDA-MB-231. Description: Anticancer activity against human MDA-MB-231 cells by MTT assay.
Assay [4] relates to HeLa. Description: Anticancer activity against human HeLa cells by MTT assay.
The test system of assay [5] is K562. Description: Anticancer activity against human K562 cells by MTT assay.
The subject of assay [6] is A549. The experiment in a line: Cytotoxicity against human A549 cells assessed as reduction in cell viability by SRB assay.
A short description of assay [7]: Cytotoxicity against human MCF7/DX cells assessed as reduction in cell viability by SRB assay.
In assay [8] the test system is HeLa. The experiment in a line: Cytotoxicity against human HeLa cells assessed as reduction in cell viability by SRB assay.

As to `O=Cc1c(-c2cc3cc(Br)ccc3oc2=O)[nH]c2ccccc12`, in assay [1], the IC50 was 5.5 to 100 µM.

As for `Cc1nn(-c2ccccc2)c(=O)n1-n1c(-c2cc3ccccc3oc2=O)cs/c1=N\c1ccc(Cl)cc1`, the IC50 in assay [2], in assay [3], in assay [4] and in assay [5] was 0.16 to 1.12 µg/mL (≈ 0.303 to 2.12 µM) in each case.

As to `Cc1nn(-c2ccccc2)c(=O)n1-n1c(-c2cc3ccccc3oc2=O)cs/c1=N\c1ccccc1`, the IC50 in assay [2], in assay [3], in assay [4] and in assay [5] was 0.16 to 1.12 µg/mL (≈ 0.324 to 2.27 µM) each time.

As for `COc1ccc(/N=c2\scc(-c3cc4ccccc4oc3=O)n2-n2c(C)nn(-c3ccccc3)c2=O)cc1`, the IC50 in assay [2], in assay [3], in assay [4] and in assay [5] was 0.16 to 1.12 µg/mL (≈ 0.306 to 2.14 µM) in each case.

On to `COc1ccc(/N=c2\scc(-c3cc4ccccc4oc3=O)n2-n2c(C)nn(-c3ccc(OC)cc3)c2=O)cc1`, for which the IC50 in assay [2], in assay [3], in assay [4] and in assay [5] was 0.16 to 1.12 µg/mL (≈ 0.289 to 2.02 µM) throughout.

Take `O=C(O)c1c(-c2cc3cc(Cl)ccc3oc2=O)[nH]c2ccccc12`: the IC50 in assay [1] lay in the range of 5.5 to 100 µM.

As for `COc1ccc(/N=c2\scc(-c3cc4ccccc4oc3=O)n2-n2c(C)nn(-c3ccc(C)cc3)c2=O)cc1`, the concentration for half-maximal inhibition (IC50) in assay [2], in assay [3], in assay [4] and in assay [5] was 0.16 to 1.12 µg/mL (≈ 0.298 to 2.08 µM) throughout.

With `COc1ccc(-c2csc(-n3nc(C)cc3-c3cc4ccccc4oc3=O)n2)cc1`, in assay [1], the IC50 was in the range of 4.03 to 31.5 µM.

For the compound `COc1ccc(/N=c2\scc(-c3cc4ccccc4oc3=O)n2-n2c(C)nn(-c3ccc(Br)cc3)c2=O)cc1`, the IC50 in assay [2], in assay [3], in assay [4] and in assay [5] was 0.16 to 1.12 µg/mL (≈ 0.266 to 1.86 µM) throughout.

Consider `COc1ccc(-n2nc(C)n(-n3c(-c4cc5ccccc5oc4=O)cs/c3=N\c3ccccc3)c2=O)cc1`, for which the half-maximal inhibitory concentration (IC50) in assay [2], in assay [3], in assay [4] and in assay [5] was 0.16 to 1.12 µg/mL (≈ 0.306 to 2.14 µM) throughout.

As to `Cc1ccc(-n2nc(C)n(-n3c(-c4cc5ccccc5oc4=O)cs/c3=N\c3ccccc3)c2=O)cc1`, the IC50 in assay [2], in assay [3], in assay [4] and in assay [5] was 0.16 to 1.12 µg/mL (≈ 0.315 to 2.21 µM) throughout.

Regarding `Cc1nn(-c2ccc(Br)cc2)c(=O)n1-n1c(-c2cc3ccccc3oc2=O)cs/c1=N\c1ccccc1`, the IC50 in assay [2], in assay [3], in assay [4] and in assay [5] was 0.16 to 1.12 µg/mL (≈ 0.28 to 1.96 µM) throughout.

In the case of `COc1ccc(-c2csc(-n3nc(C)cc3-c3cc4cc(Br)ccc4oc3=O)n2)cc1`, the 50% inhibitory concentration (IC50) in assay [1] is 4.03 to 31.5 µM.

Take `Cc1nn(-c2ccc(Br)cc2)c(=O)n1-n1c(-c2cc3ccccc3oc2=O)cs/c1=N\c1ccc(Cl)cc1`: the half-inhibitory concentration (IC50) in assay [2], in assay [3], in assay [4] and in assay [5] was 0.16 to 1.12 µg/mL (≈ 0.264 to 1.85 µM) in each case.

As for `Cc1ccc(-n2nc(C)n(-n3c(-c4cc5ccccc5oc4=O)cs/c3=N\c3ccc(Cl)cc3)c2=O)cc1`, the half-inhibitory concentration (IC50) in assay [2], in assay [3], in assay [4] and in assay [5] was 0.16 to 1.12 µg/mL (≈ 0.295 to 2.07 µM) throughout.

For `COc1cc([C@@H]2c3cc4c(cc3[C@@H](O[C@@H]3O[C@@H]5CO[C@@H](C)O[C@H]5[C@H](O)[C@H]3O)[C@H]3COC(=O)[C@H]23)OCO4)cc(OC)c1O` [ETOPOSIDE], the IC50 in assay [6], in assay [7] and in assay [8] was over 50 µM each time.

The record behind these values is ChEMBL document CHEMBL4373717, “Coumarin-containing hybrids and their anticancer activities” (Eur J Med Chem, 2019).
